From EP1808169B1, “Polyhydroxylated aromatic compounds for the treatment of amyloidosis and alpha-synuclein fibril diseases” (priority 1999, dated 2001)

Columns and labels:
[1] = tested on: Aβ 1-40 amyloid fibrils; assay: Thioflavin T fluorometry: dose-dependent disassembly/disruption of pre-formed Aβ 1-40 fibrils; format: biochemical; conditions: 25 µM pre-fibrillized Aβ 1-40, overnight (~18 hours) at 37°C
From the text: A previously described method of measuring amyloid fibril formation utilizing Thioflavin T fluorometry (H Naiki et al., Lab. Invest. 65:104-110, 1991; H Levine III, Protein Sci. 2:404-410, 1993; H Levine III, Amyloid: Int. J. Exp. Clin. Invest. 2:1-6, 1995; H Naiki and K. Nakakuki, Lab. Invest. 74:374-383, 1996) was employed to identify potential therapeutic compounds capable of causing a disassembly/disruption of Alzheimer's Aβ 1-42 amyloid fibrils. Thioflavin T is known to bind to fibrillar amyloid proteins, and an increase in fluorescence correlates with an increase in amyloid fibril formation, whereas a decrease in fluorescence correlates with a decrease in amyloid fibrils due to disassembly and/or disruption. The Alzheimer's Aβ protein (1-42) when placed in solution, such as distilled water, tends to spontaneously form amyloid fibrils. Using this sensitive assay, any decreases or increases in fluorescence was previously shown to correlate with a decrease or increase in the amount of amyloid fibrils (see the documents cited above), allowing one to identify and quantitate the extent of potential inhibitors and/or enhancers of Alzheimer's Aβ 1-42 amyloid fibrils.
To assess the effects of each compound on potential disassembly/ disruption of preformed Aβ 1-42 fibrils, 50 µl of Aβ 1-42 with or without test compounds (described above) were added to 1.2 ml of 100µM Thioflavin T (Sigma) in 50mM NaH2PO4 (pH 6.0) for fluorometry readings. […] Fluorescence emission at 482 nm was measured on a Turner instrument-model 450 fluorometer at an excitation wavelength of 450 nm. For each determination, the fluorometer was calibrated by zeroing in the presence of the Thioflavin T reagent alone, and by setting the 50 ng/ml riboflavin (Sigma Chemical Co., St. Louis, MO) in the Thioflavin T reagent to 1800 fluorescence units. All fluorescence determinations were based on these references and any fluorescence given off by any of the compounds in the presence of the Thioflavin T reagent was always subtracted from all pertinent readings.
For all fibrillogenesis studies utilizing Thioflavin T fluorometry, as disclosed herein, comparisons of amyloid protein in the presence or absence of test compounds were based on paired Student's t tests with data shown as the mean of triplicate measurements ± standard deviation.
In this study, the potential dose-dependent effects of tannic acid and gallic acid on disassembly/ disruption of pre-formed Aβ 1-40 was assessed. In this experiment, 1 mg of Aβ 1-40 (Bachem Inc., Torrance, CA, USA; Lot # T-20824) was dissolved in 1.0 ml of double distilled water (1 mg/ml solution) and incubated for 4 days at 37°C to spontaneously induce fibril formation. 25 µM of pre-fibrillized Aβ 1-40 was then incubated overnight (~18 hours) at 37°C, in the absence or presence of increasing amounts (25µg/ml, 50µg/ml, 75µg/ml and 100µg/ml) of tannic acid or gallic acid (each in the presence of 150 mM Tris HCl, 10 mM NaCl, pH 7.0, with 0.02% sodium azide). The Aβ:compound weight ratios were therefore 4:1, 2:1, 4:3, and 1:1, respectively, 50 µl aliquots were then added to 1.2 ml of 100µM Thioflavin T (Sigma) in 50mM NaH2PO4 (pH 6.0) for fluorometry readings as described in Example 1 above.

[2] = tested on: Aβ 1-40 amyloid fibrils; assay: Modified Congo red-Aβ spectrophotometric assay: dose-dependent disaggregation of fibrillized Aβ 1-40 (overnight incubation); format: biochemical; conditions: overnight (~18 hours) at 37°C
Experimental: In this study, a Congo red-Aβ spectrophotometric assay (Klunk et al., Anal. Biochem. 266:66-76, 1999) was modified to determine the effectiveness of polyhydroxylated aromatic compounds on the disaggregation of pre-formed Aβ 1-40 amyloid fibrils. For this assay, 1 mg of Aβ 1-40 (Bachem) was incubated for 4 days in distilled water at 37°C to spontaneously produce amyloid fibrils. 25pM of fibrillized Aβ 1-40 was then incubated in triplicate with various test compounds for 3 days at 37°C in Tris-buffered saline (TBS)(100 mM Tris; 50 mM NaCl; pH 7.0, with 0.02% sodium azide), at an Aβ:compound weight ratio of 2:1. Following incubation, 50µl of 360 µM Congo red (Sigma) in distilled water was then added to 250 µl of each incubation mixture, giving a final Aβ:Congo red molar ratio of 1:3. After 10 minutes, the absorbance at 405 nm (reference wavelength to account for the absorbance of Congo red alone at 540 nm) and 540 nm (sample absorbance where "sample" refers to Aβ alone, test compound alone, or Aβ plus test compound, all in the presence of Congo red) was determined using a Biorad Model 550 BLISA Plate Reader (Biorad, Hercules, CA, USA). The absorbance at wavelength 405 nm was automatically subtracted by the ELISA plate reader from the absorbance at wavelength 540 nm (difference is referred to as Δ absorbance)(see Klunk et al. cited above). Therefore, the Δ absorbance reading at 540 nm was proportional to the amount of aggregated Aβ left in solution (Klunk et al.).
For all experiments involving test compounds, the Δ absorbance reading at 540 nm of the test compound alone (in the absence of Aβ), was always subtracted from the corresponding Δ absorbance reading at 540 nm of the test compound in the presence of Aβ. Using this modification of the method of Klunk et al., the use of a greater final concentration of Congo red, i.e. 60µM instead of 14µM, in the presence of fibrillar Aβ gave an overall absorbance at 540 nm that was always below 1.0 Absorbance Unit (AU), and well within the linear absorbance range.
In this study, the potential dose-dependent effects of tannic acid and gallic acid on the disaggregation of fibrillized Aβ 1-40 was assessed. In this experiment, the modified Congo red-Aβ spectrophotometric assay (Klunk et al, Anal. Biochem. 266:66-76, 1999) was used as described above (i.e. Example 4). However, in this specific experiment increasing amounts of tannic acid or gallic acid (i.e. 25µg/ml, 50µg/ml, 75µg/ml and 100µg/ml) were tested following an overnight (~18 hours) incubation at 37°C in the presence of 25pM of Aβ 1.40 (Bachem).

[3] = Aβ:compound w/w ratio 1:1 (100µg/ml compound)
[4] = Aβ:compound w/w ratio 2:1 (50µg/ml compound)
[5] = Aβ:compound w/w ratio 4:1 (25µg/ml compound)
[6] = Aβ:compound w/w ratio 4:3 (75µg/ml compound)
[7] = w/w ratio 2:1 (50µg/ml compound)
[8] = w/w ratio 4:1 (25µg/ml compound)
[9] = w/w ratio 4:3 (75µg/ml compound)

Compound: O=C(O)c1cc(O)c(O)c(O)c1 [Gallic acid, gallic acid]
- Fluorescence inhibition, %, at the Aβ 1.40:compound w/wratios given [1, 3]: 45 ± 4.1%
- Fluorescence inhibition, %, at the Aβ 1.40:compound w/wratios given [1, 4]: 22 ± 3.3%
- Fluorescence inhibition, %, at the Aβ 1.40:compound w/wratios given [1, 5]: 14 ± 8.2 %
- Fluorescence inhibition, %, at the Aβ 1.40:compound w/wratios given [1, 6]: 34 ± 3.6%
- Decrease in absorbance, %, at the Aβ 1-40:compound w/w ratios given [2, 7]: 22 ± 4.0%
- Decrease in absorbance, %, at the Aβ 1-40:compound w/w ratios given [2, 8]: 17 ± 9.5%
- Decrease in absorbance, %, at the Aβ 1-40:compound w/w ratios given [2, 9]: 30 ± 6.0%

Compound: O=C(OC[C@H]1O[C@@H](OC(=O)c2cc(O)c(O)c(OC(=O)c3cc(O)c(O)c(O)c3)c2)[C@H](OC(=O)c2cc(O)c(O)c(OC(=O)c3cc(O)c(O)c(O)c3)c2)[C@@H](OC(=O)c2cc(O)c(O)c(OC(=O)c3cc(O)c(O)c(O)c3)c2)[C@@H]1OC(=O)c1cc(O)c(O)c(OC(=O)c2cc(O)c(O)c(O)c2)c1)c1cc(O)c(O)c(OC(=O)c2cc(O)c(O)c(O)c2)c1 [Tannic acid, tannic acid]
- Fluorescence inhibition, %, at the Aβ 1.40:compound w/wratios given [1, 3]: 53 ± 4.2%
- Fluorescence inhibition, %, at the Aβ 1.40:compound w/wratios given [1, 4]: 42 ± 2.8%
- Fluorescence inhibition, %, at the Aβ 1.40:compound w/wratios given [1, 5]: 31 ± 4.8%
- Fluorescence inhibition, %, at the Aβ 1.40:compound w/wratios given [1, 6]: 49 ± 3.7%
- Decrease in absorbance, %, at the Aβ 1-40:compound w/w ratios given ([2]; w/w ratio 1:1 (100µg/ml compound)): 61 ± 11.1%
- Decrease in absorbance, %, at the Aβ 1-40:compound w/w ratios given [2, 7]: 48 ± 6.8%
- Decrease in absorbance, %, at the Aβ 1-40:compound w/w ratios given [2, 8]: 42 ± 5.2%
- Decrease in absorbance, %, at the Aβ 1-40:compound w/w ratios given [2, 9]: 59 ± 6.4%
